Data reported in PubChem BioAssay (NCI).
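Values below derive from 48-hour exposures of cells grown in 96-well plates, with endpoints linearly interpolated between the two concentrations bracketing the appropriate inhibition level. The concentration for 50% growth inhibition is given as GI50. The concentration for full growth arrest is given as TGI.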

Columns and labels:
Test in all cases: growth of human tumour cells (NCI), 48 h
OVCAR-3 ovarian = system: OVCAR-3 ovarian
SN12C renal = system: SN12C renal
OVCAR-8 ovarian = system: OVCAR-8 ovarian
SNB-19 CNS = system: SNB-19 CNS
A549 NSCLC = system: A549 NSCLC
U251 CNS = system: U251 CNS
HCC-2998 colon = system: HCC-2998 colon
MALME-3M melanoma = system: MALME-3M melanoma
SF-539 CNS = system: SF-539 CNS
SNB-75 CNS = system: SNB-75 CNS
TK-10 renal = system: TK-10 renal
SK-OV-3 ovarian = system: SK-OV-3 ovarian
HL-60(TB) leukemia = system: HL-60(TB) leukemia
CAKI-1 renal = system: CAKI-1 renal
MDA-MB-231 breast = system: MDA-MB-231 breast
ACHN renal = system: ACHN renal
SK-MEL-2 melanoma = system: SK-MEL-2 melanoma
OVCAR-4 ovarian = system: OVCAR-4 ovarian
NCI/ADR-RES ovarian = system: NCI/ADR-RES ovarian
T-47D breast = system: T-47D breast
MCF7 breast = system: MCF7 breast
NCI-H522 lung = system: NCI-H522 lung
KM12 colon = system: KM12 colon
OVCAR-5 ovarian = system: OVCAR-5 ovarian
MOLT-4 leukemia = system: MOLT-4 leukemia
SK-MEL-28 melanoma = system: SK-MEL-28 melanoma
SW-620 colon = system: SW-620 colon
786-0 renal = system: 786-0 renal
NCI-H226 lung = system: NCI-H226 lung
LOX IMVI melanoma = system: LOX IMVI melanoma
SF-295 CNS = system: SF-295 CNS
UACC-257 melanoma = system: UACC-257 melanoma
SR leukemia = system: SR leukemia
RPMI-8226 leukemia = system: RPMI-8226 leukemia
IGROV1 ovarian = system: IGROV1 ovarian
HT29 colon = system: HT29 colon
M14 melanoma = system: M14 melanoma
SK-MEL-5 melanoma = system: SK-MEL-5 melanoma
HCT-116 colon = system: HCT-116 colon
UACC-62 melanoma = system: UACC-62 melanoma
HOP-92 NSCLC = system: HOP-92 NSCLC
PC-3 prostate = system: PC-3 prostate
COLO 205 colon = system: COLO 205 colon
RXF 393 renal = system: RXF 393 renal
NCI-H460 lung = system: NCI-H460 lung
MDA-MB-435 = system: MDA-MB-435
UO-31 renal = system: UO-31 renal
HCT-15 colon = system: HCT-15 colon
HS 578T breast = system: HS 578T breast
HOP-62 NSCLC = system: HOP-62 NSCLC
DU-145 prostate = system: DU-145 prostate
K-562 leukemia = system: K-562 leukemia
SF-268 CNS = system: SF-268 CNS
NCI-H23 lung = system: NCI-H23 lung
BT-549 breast = system: BT-549 breast
CCRF-CEM leukemia = system: CCRF-CEM leukemia
A498 renal = system: A498 renal

Work on `C[C@H](O)CNc1cc(-c2[nH]c3cccnc3c2-c2ccc(F)cc2)ccn1` yielded a GI50 (OVCAR-3 ovarian) of 22.2 µM, a TGI (OVCAR-3 ovarian) of over 25 µM and a GI50 (SN12C renal) of 11.9 µM. It also gave a TGI (SN12C renal) of over 25 µM, a GI50 (OVCAR-8 ovarian) of over 20.2 µM and a TGI (OVCAR-8 ovarian) of over 25 µM. The GI50 (SNB-19 CNS) was 18.5 µM, the TGI (SNB-19 CNS) was over 25 µM and the GI50 (A549 NSCLC) was 13.4 µM. For the same molecule, the TGI (A549 NSCLC) was over 25 µM, the GI50 (U251 CNS) was over 18.5 µM and the TGI (U251 CNS) was over 25 µM. For the same molecule, the GI50 (HCC-2998 colon) was over 23.3 µM, the TGI (HCC-2998 colon) was over 25 µM and the GI50 (MALME-3M melanoma) was over 14.4 µM. The TGI (MALME-3M melanoma) was over 25 µM, the GI50 (SF-539 CNS) was over 25 µM and the TGI (SF-539 CNS) was over 25 µM. It also gave a GI50 (SNB-75 CNS) of 11.8 µM, a TGI (SNB-75 CNS) of over 25 µM and a GI50 (TK-10 renal) of 10.3 µM. It also gave a TGI (TK-10 renal) of over 25 µM, a GI50 (SK-OV-3 ovarian) of 13.1 µM and a TGI (SK-OV-3 ovarian) of over 25 µM. The GI50 (HL-60(TB) leukemia) was over 25 µM, the TGI (HL-60(TB) leukemia) was over 25 µM and the GI50 (CAKI-1 renal) was 9.06 µM. The TGI (CAKI-1 renal) was over 25 µM, the GI50 (MDA-MB-231 breast) was 24.1 µM and the TGI (MDA-MB-231 breast) was over 25 µM. It also gave a GI50 (ACHN renal) of 4.66 µM, a TGI (ACHN renal) of over 25 µM and a GI50 (SK-MEL-2 melanoma) of over 25 µM. For the same molecule, the TGI (SK-MEL-2 melanoma) was over 25 µM, the GI50 (OVCAR-4 ovarian) was over 25 µM and the TGI (OVCAR-4 ovarian) was over 25 µM. It also gave a GI50 (NCI/ADR-RES ovarian) of over 25 µM, a TGI (NCI/ADR-RES ovarian) of over 25 µM and a GI50 (T-47D breast) of 8.88 µM. The TGI (T-47D breast) was over 25 µM, the GI50 (MCF7 breast) was 6.37 µM and the TGI (MCF7 breast) was over 25 µM. It also gave a GI50 (NCI-H522 lung) of over 25 µM, a TGI (NCI-H522 lung) of over 25 µM and a GI50 (KM12 colon) of 22.1 µM. The TGI (KM12 colon) was over 25 µM, the GI50 (OVCAR-5 ovarian) was over 25 µM and the TGI (OVCAR-5 ovarian) was over 25 µM. The GI50 (MOLT-4 leukemia) was over 25 µM, the TGI (MOLT-4 leukemia) was over 25 µM and the GI50 (SK-MEL-28 melanoma) was over 25 µM. The TGI (SK-MEL-28 melanoma) was over 25 µM, the GI50 (SW-620 colon) was over 25 µM and the TGI (SW-620 colon) was over 25 µM. It also gave a GI50 (786-0 renal) of 16.2 µM, a TGI (786-0 renal) of over 25 µM and a GI50 (NCI-H226 lung) of 12.9 µM. It also gave a TGI (NCI-H226 lung) of over 25 µM, a GI50 (LOX IMVI melanoma) of 12.5 µM and a TGI (LOX IMVI melanoma) of over 25 µM. For the same molecule, the GI50 (SF-295 CNS) was over 12.4 µM, the TGI (SF-295 CNS) was over 25 µM and the GI50 (UACC-257 melanoma) was over 25 µM. For the same molecule, the TGI (UACC-257 melanoma) was over 25 µM, the GI50 (SR leukemia) was 13.3 µM and the TGI (SR leukemia) was over 25 µM. For the same molecule, the GI50 (RPMI-8226 leukemia) was over 17.1 µM, the TGI (RPMI-8226 leukemia) was over 25 µM and the GI50 (IGROV1 ovarian) was 6.35 µM. It also gave a TGI (IGROV1 ovarian) of over 21.8 µM, a GI50 (HT29 colon) of 10.1 µM and a TGI (HT29 colon) of over 25 µM. The GI50 (M14 melanoma) was over 25 µM, the TGI (M14 melanoma) was over 25 µM and the GI50 (SK-MEL-5 melanoma) was 10.3 µM. For the same molecule, the TGI (SK-MEL-5 melanoma) was over 25 µM, the GI50 (HCT-116 colon) was 13.2 µM and the TGI (HCT-116 colon) was over 25 µM. The GI50 (UACC-62 melanoma) was 12.3 µM, the TGI (UACC-62 melanoma) was over 25 µM and the GI50 (HOP-92 NSCLC) was 1.59 µM. The TGI (HOP-92 NSCLC) was over 22.9 µM, the GI50 (PC-3 prostate) was over 23 µM and the TGI (PC-3 prostate) was over 25 µM. The GI50 (COLO 205 colon) was 13.5 µM, the TGI (COLO 205 colon) was over 25 µM and the GI50 (RXF 393 renal) was 14.6 µM. The TGI (RXF 393 renal) was over 25 µM, the GI50 (NCI-H460 lung) was 8.43 µM and the TGI (NCI-H460 lung) was over 25 µM. For the same molecule, the GI50 (MDA-MB-435) was over 23 µM, the TGI (MDA-MB-435) was over 25 µM and the GI50 (UO-31 renal) was 4.08 µM. It also gave a TGI (UO-31 renal) of over 25 µM, a GI50 (HCT-15 colon) of 10.3 µM and a TGI (HCT-15 colon) of over 25 µM. For the same molecule, the GI50 (HS 578T breast) was 15.8 µM, the TGI (HS 578T breast) was over 25 µM and the GI50 (HOP-62 NSCLC) was 20.1 µM. For the same molecule, the TGI (HOP-62 NSCLC) was over 25 µM, the GI50 (DU-145 prostate) was 18.7 µM and the TGI (DU-145 prostate) was over 25 µM. For the same molecule, the GI50 (K-562 leukemia) was over 23 µM, the TGI (K-562 leukemia) was over 25 µM and the GI50 (SF-268 CNS) was 17.3 µM. It also gave a TGI (SF-268 CNS) of over 25 µM, a GI50 (NCI-H23 lung) of over 25 µM and a TGI (NCI-H23 lung) of over 25 µM. It also gave a GI50 (BT-549 breast) of 17.8 µM, a TGI (BT-549 breast) of over 25 µM and a GI50 (CCRF-CEM leukemia) of 20.1 µM. For the same molecule, the TGI (CCRF-CEM leukemia) was over 25 µM, the GI50 (A498 renal) was 4.19 µM and the TGI (A498 renal) was over 25 µM.
